32 substances from patent publication US20030134329A1, “Cross-species bioactive peptides” (priority 2001, published 2003) can be followed below.

The test system of assay [1] is FLO11. Kind of assay: PFLO11-lacZ reporter, β-galactosidase activity. It is filed as cell-based, S. cerevisiae. The conditions noted are these: for FL011-lacZ (relative expression): Table 1, strain MY1405 with plasmid MB1339, control pTCN23 = 1.0; for FLO11-lacZ (relative expression): Table 2, strain MY1405 with MB1339, control pTCN23 = 1.0. The text has this: Transformation of S. cerevisiae was by lithium acetate/single-stranded carrier DNA/polyethylene glycol (LiAc/ss-DNA/PEG) protocol (see, e.g., Gietz and Woods (1998), in: Methods in Microbiology, Chapter 26, Brown and Tuite, eds., Academic Press, New York; Agatep et al. (1998), TTO 1:P01525, Technical Tips Online at http://tto.trends.com) with a library of plasmids expressing unique random peptide sequences in the context of a Staphylococcal nuclease “scaffold” to generate more than 20 million independent Ura^+ transformants (Norman et al. (1999), Science 285:591-595). The transformants were replica-plated to YPD plates supplemented with […] G418 to select for clones with increased expression of the invasion-related reporter (FLO11) and consequent G418 resistance. Plates were incubated at 30° C. for 2-4 days and resistant clones were collected in pools (50 pools total) by scraping the colonies off each plate in a small volume of water. Plasmids were isolated as a pool (Hoffman and Winston (1986), Gene 57:267), transformed into E. coli, and re-transformed as a pool into the original selection strain, MY1560. Ura^+ transformants were again replica plated to YPD+100 μg/ml G418 plates. […] Positive clones were further tested for plasmid dependence by (1) examining the correlation between spontaneous loss of the peptide-expressing plasmid and loss of G418 resistance, and (2) recovering the plasmid from the yeast, retransforming into the original selection strain, and characterizing the G418 resistance. […] The remaining candidate peptides were characterized for their effects on expression of PFLO11-lacZ reporter constructs. This was performed by co-transforming the candidate plasmid into S. cerevisiae strain MY1405 (MATα ura3Δ0 his3Δ0::hisG trp1Δ0::hisG) which contains plasmid MB1339 [PFLO11-lacZ TRP1 […]] and measuring β-galactosidase activity.

For assay [2], the system named is SMP1. The conditions noted are these: Table 2, strain MY1405 with MB1338, control pTCN23 = 1.0. The text has this: S. cerevisiae strain MY1561 (MATα/MATαΔ::LEU2 ura3Δ::PSMP1-neo/ura3Δ0 leu2Δ0/leu2Δ0 trp1Δ0::hisG/trp1Δ0::hisG/his3Δ0::hisG/his3Δ0::hisG) was transformed with the peptide library as described above to generate 10 million independent Ura^+ clones. The transformed clones were mated to lawns of S. cerevisiae strain MY1406 [MB1337] and subsequently replica-plated to SC-Ura-Trp plates to select for triploids carrying the library clones in addition to the PSMP1-neo reporter. […] The MY1561/MY1406 [MB1337] triploids were replica-plated to YPD plates containing 100, 150, and 200 μg/ml G418, and resistant colonies were picked and retested, and their phenotypes were checked for library plasmid dependence using 5-FOA. Promising candidates were lysed and their plasmids recovered in E. coli, amplified, and reintroduced into MY1561 along with MB 1337(MY1561 is an S. cerevisiae strain and MB 1337 is a plasmid). […] In addition, S. cerevisiae strain MY1405 was transformed with the peptide clones along with MB1338 [PSMP1-lacZ TRP1 2 micron] and MB1339 [PFLO11-lacZ TRP1 2 micron], and the enzyme assays were monitored. […] Peptide inhibitors of invasion were further characterized for their effects on calcofluor resistance, a phenotype associated with mutations in the rim101/pH response pathway.

In assay [3] the test system is hyphal transition in C. albicans. Put plainly: serum induction assay of hyphal transition. The class given is cell-based. The conditions noted are these: C. albicans transformants, serum inducing media, 37° C., relative to parent staph nuclease scaffold.
Assay [4] deals with PHWP1-lacZ reporter. Put plainly: PHWP1-lacZ reporter visual screen on X-Gal plates. It is filed as cell-based, C. albicans.

Take “AFSRRGRRAWSWPVSN [5-48, 2, invasion-promoting random peptide expressed in loop of Staphylococcal nuclease scaffold]”: in assay [1], the “FL011-lacZ (relative expression)” value is 12.9.

With “ALARWLEIELHPQGLI [5-16, 3, invasion-promoting random peptide expressed in loop of Staphylococcal nuclease scaffold]”, the “FL011-lacZ (relative expression)” value in assay [1] amounted to 13.3.

“CGLGGCCCEIFWSFSN [5-30, 3, invasion-promoting random peptide expressed in loop of Staphylococcal nuclease scaffold]”: the “FL011-lacZ (relative expression)” value in assay [1] is 7.3.

In the case of “ELAYKFGRDWARLYFS [Clone 5-75-1, invasion-promoting random peptide expressed in loop of Staphylococcal nuclease scaffold]”, the “FL011-lacZ (relative expression)” value in assay [1] stood at 15.0.

For “EWCEICHRLVWVFCFT [5-34, 3, invasion-promoting random peptide expressed in loop of Staphylococcal nuclease scaffold]”, in assay [1], the “FL011-lacZ (relative expression)” value is 4.1.

“GAGCAPRGCVVWSSLL [4-3, 1, invasion-promoting random peptide expressed in loop of Staphylococcal nuclease scaffold]”: the “FL011-lacZ (relative expression)” value in assay [1] amounted to 2.5.

Turning to “GHLWEWSGERWLLRWC [5-23, 1a, invasion-promoting random peptide expressed in loop of Staphylococcal nuclease scaffold]”, in assay [1], the “FL011-lacZ (relative expression)” value turned out to be 12.2.

Regarding “GRRSRVRWSWPLFKSL [5-28, 3, invasion-promoting random peptide expressed in loop of Staphylococcal nuclease scaffold]”, in assay [1], the “FL011-lacZ (relative expression)” value is recorded as 18.2.

For “GYLRKHRALALGLNLH [4-9, 3, invasion-promoting random peptide expressed in loop of Staphylococcal nuclease scaffold]”, the “FL011-lacZ (relative expression)” value in assay [1] is given as 11.5.

As to “HGDGLMRYFWSVAMWT [Clone 5-12-1a, invasion-promoting random peptide expressed in loop of Staphylococcal nuclease scaffold]”, the “FL011-lacZ (relative expression)” value in assay [1] is 2.7.

With “KRGRRRSHSCPSLMTD [4-1, 1, invasion-promoting random peptide expressed in loop of Staphylococcal nuclease scaffold]”, the “FL011-lacZ (relative expression)” value in assay [1] stood at 2.2.

For the substance “KRKVCLLGGRFLVEWL [4-16, 2, invasion-promoting random peptide expressed in loop of Staphylococcal nuclease scaffold]”, the “FL011-lacZ (relative expression)” value in assay [1] stood at 14.8.

LAYGPERYPRACMRWD [Clone B2a]: in assay [2], the “SMP1-lacZ (relative expression)” value is on record as 8.9. Moreover, the “FLO11-lacZ (relative expression)” value in assay [1] amounted to 0.2.

Regarding “LDLDRVSVNRCSFMGF [Clone 5-20-1a, invasion-promoting random peptide expressed in loop of Staphylococcal nuclease scaffold]”, the “FL011-lacZ (relative expression)” value in assay [1] was determined as 2.8.

Take LGYGEAEREMVTCREH [Clone D4a]: the “SMP1-lacZ (relative expression)” value in assay [2] amounted to 9.1. The “FLO11-lacZ (relative expression)” value in assay [1] was found to be 0.1.

Take LGYMRASREMDGWKLL [Clone D2a]: the “SMP1-lacZ (relative expression)” value in assay [2] was determined as 15.4. Further, the “FLO11-lacZ (relative expression)” value in assay [1] is recorded as 0.3.

Consider LPVSYVGQSTSQGPVW [Clone G4a-6], for which the “SMP1-lacZ (relative expression)” value in assay [2] was determined as 7.8. Further, the “FLO11-lacZ (relative expression)” value in assay [1] came to 0.4.

In the case of LPYEVSRVCWPRRLGY [Clone D2e], the “SMP1-lacZ (relative expression)” value in assay [2] is 14.3. For the same substance, in assay [1], the “FLO11-lacZ (relative expression)” value is 0.1.

For LSYMEGPYWHRSFRAV [Clone G2a], the “SMP1-lacZ (relative expression)” value in assay [2] was found to be 7.5. Also, the “FLO11-lacZ (relative expression)” value in assay [1] was found to be 0.5.

Consider LTGYAKLLVQLSYFAM [Clone B2c-2], for which the “SMP1-lacZ (relative expression)” value in assay [2] amounted to 6.4. For the same substance, the “FLO11-lacZ (relative expression)” value in assay [1] is reported as 0.7.

Take “LYRAFTWPVAKSLRME [5-37, 1, invasion-promoting random peptide expressed in loop of Staphylococcal nuclease scaffold]”: the “FL011-lacZ (relative expression)” value in assay [1] is listed as 6.1.

On to “MGCVKRLLWGCCMKLT [Clone 5-64-1, invasion-promoting random peptide expressed in loop of Staphylococcal nuclease scaffold]”, for which the “FL011-lacZ (relative expression)” value in assay [1] was determined as 2.0.

For the substance “PYGPFLLLTPF*A*L [5-32, 1, invasion-promoting random peptide in Staphylococcal nuclease scaffold; * denotes a stop codon; C. albicans expression plasmid MB2756]”, the “morphological switch between yeast and filamentous growth (hyphal transition)” value in assay [3] is “effective in inducing the morphological switch between yeast and filamentous growth”. For the same substance, the “β-galactosidase expression (PHWP1-lacZ reporter)” value in assay [4] was “higher level of β-galactosidase expression”. The “FL011-lacZ (relative expression)” value in assay [1] is 15.1.

As to “QPWYRKLRLAPVYPSD [Clone 5-39-1a, invasion-promoting random peptide expressed in loop of Staphylococcal nuclease scaffold]”, in assay [1], the “FL011-lacZ (relative expression)” value is 17.8.

“QRIPLIGGVLFIAWIM [Clone 5-11-3a, invasion-promoting random peptide expressed in loop of Staphylococcal nuclease scaffold]”: the “FL011-lacZ (relative expression)” value in assay [1] is listed as 3.0.

Turning to “RCPVAHTLCWEVAGCT [Clone 5-43-3b, invasion-promoting random peptide expressed in loop of Staphylococcal nuclease scaffold]”, the “FL011-lacZ (relative expression)” value in assay [1] came to 9.6.

With “REINWLRFFRLHKVID [5-45, 2, invasion-promoting random peptide expressed in loop of Staphylococcal nuclease scaffold]”, the “FL011-lacZ (relative expression)” value in assay [1] is reported as 6.2.

Consider “RRWEVLRGDRTARLLS [5-25, 2, invasion-promoting random peptide expressed in loop of Staphylococcal nuclease scaffold]”, for which, in assay [1], the “FL011-lacZ (relative expression)” value is listed as 13.7.

Take “RRWNRLKSWWPCFREQ [Clone 5-18-3b, invasion-promoting random peptide expressed in loop of Staphylococcal nuclease scaffold]”: the “FL011-lacZ (relative expression)” value in assay [1] amounted to 2.6.

Regarding “SGDAVMGFLLKCLGLQ [5-31, 2, invasion-promoting random peptide expressed in loop of Staphylococcal nuclease scaffold]”, the “FL011-lacZ (relative expression)” value in assay [1] worked out at 12.6.

As to “WWRPHERFIWAQYYLA [5-14, 3, invasion-promoting random peptide expressed in loop of Staphylococcal nuclease scaffold]”, the “FL011-lacZ (relative expression)” value in assay [1] came out at 4.9.

Turning to “YEAGVILRACLWAVSG [4-17, 1, invasion-promoting random peptide expressed in loop of Staphylococcal nuclease scaffold]”, the “FL011-lacZ (relative expression)” value in assay [1] came out at 10.5.
